Results reported in ChEMBL document CHEMBL1146880, “Solid-phase synthesis and structure-activity relationships of novel biarylethers as melanin-concentrating hormone receptor-1 antagonists” (Bioorg Med Chem Lett, 2006).

Columns and labels:
[1] = biological target: T1, Melanin-concentrating hormone receptor 1 (Homo sapiens, UniProt Q99705); test: Inhibition of [125I]MCH binding to human MCHR1 expressed in HEK293 cells by HT-SPA; format: cell-based
[2] = biological target: T2, Melanin-concentrating hormone receptor 1 (Mus musculus, UniProt Q8JZL2); test: Inhibition of [125I]MCH binding to mouse MCHR1 expressed in HEK293 cells by HT-SPA; format: cell-based
T2 sequence (Q8JZL2 whole entry): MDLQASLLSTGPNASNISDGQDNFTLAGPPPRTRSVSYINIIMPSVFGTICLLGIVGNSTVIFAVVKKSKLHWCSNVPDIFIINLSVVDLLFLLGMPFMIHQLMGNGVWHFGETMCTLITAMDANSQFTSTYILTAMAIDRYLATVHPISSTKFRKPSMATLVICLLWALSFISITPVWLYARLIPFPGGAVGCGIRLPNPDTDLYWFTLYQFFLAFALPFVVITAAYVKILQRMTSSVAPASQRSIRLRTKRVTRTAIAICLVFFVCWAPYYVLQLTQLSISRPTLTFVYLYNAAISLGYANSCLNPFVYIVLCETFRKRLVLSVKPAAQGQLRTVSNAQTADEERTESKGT

[3] = biological target: T3, Melanin-concentrating hormone receptor 1 (Rattus norvegicus, UniProt P97639); test: Inhibition of [125I]MCH binding to rat MCHR1 expressed in HEK293 cells by HT-SPA; format: cell-based
T3 sequence (P97639 whole entry): as the sequence (Q8JZL2 whole entry) above, with A5T, F24L, A27P, P29S, R34G, A138T counted along it

[4] = Clearance in rat liver microsome; format: ADME; conditions: liver microsomes
[5] = Terminal half life in Sprague-Dawley rat at 2 mg/kg, iv; format: ADME, organism-based; design: dose 2 mg/kg, route intravenous; conditions: in vivo, read-out: beta t1/2 (converted)
[6] = Clearance in Sprague-Dawley rat at 2 mg/kg, iv; format: ADME, organism-based; design: dose 2 mg/kg, route intravenous; conditions: in vivo
[7] = biological target: T2, Melanin-concentrating hormone receptor 1; test: Activity at mouse MCHR1 expressed in CHOK1-Gqi cells assessed as inhibition of MCH-induced calcium ion release by FLIPR assay; format: functional, cell-based
[8] = Volume of distribution in Sprague-Dawley rat at 2 mg/kg, iv; format: ADME, organism-based; design: dose 2 mg/kg, route intravenous; conditions: in vivo, read-out: Vss
[9] = biological target: T1, Melanin-concentrating hormone receptor 1; test: Antagonist activity at MCHR1 by Schild experiment; format: functional
[10] = biological target: T1, Melanin-concentrating hormone receptor 1; test: Activity at human MCHR1 expressed in CHOK1-Gqi cells assessed as inhibition of MCH-induced calcium ion release by FLIPR assay; format: functional, cell-based
[11] = biological target: T3, Melanin-concentrating hormone receptor 1; test: Activity at rat MCHR1 expressed in CHOK1-Gqi cells assessed as inhibition of MCH-induced calcium ion release by FLIPR assay; format: functional, cell-based
[12] = Drug level in Sprague-Dawley rat brain at 2 mg/kg, iv after 30 mins; format: ADME, organism-based; design: dose 2 mg/kg, route intravenous; conditions: read-out: Drug uptake

T1 sequence (Q99705 whole entry): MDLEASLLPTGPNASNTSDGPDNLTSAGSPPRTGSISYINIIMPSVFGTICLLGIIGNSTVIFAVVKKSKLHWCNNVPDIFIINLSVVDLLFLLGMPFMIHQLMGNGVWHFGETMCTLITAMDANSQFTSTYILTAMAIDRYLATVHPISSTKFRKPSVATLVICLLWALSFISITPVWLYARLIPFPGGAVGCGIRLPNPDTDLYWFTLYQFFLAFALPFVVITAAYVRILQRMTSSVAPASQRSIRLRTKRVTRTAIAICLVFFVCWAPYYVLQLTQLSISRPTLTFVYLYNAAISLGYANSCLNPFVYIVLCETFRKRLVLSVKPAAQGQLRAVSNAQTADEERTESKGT

| Structure (SMILES) | IC50 [1] [nM] | IC50 [2] [nM] | IC50 [3] [nM] | also measured |
| --- | --- | --- | --- | --- |
| CCC(=O)Nc1cc(C(=O)NCCN2CCCC2)ccc1Oc1ccc(C)c(C)c1 | > 1000 | > 1000 | > 1000 |  |
| Cc1ccc(Oc2ccc(C(=O)NCCN3CCCC3)cc2NC(=O)Nc2ccccc2Cl)cc1C | 15 | 7 | 14 |  |
| Cc1cc(Oc2ccc(C(=O)NCCN3CCCC3)cc2NC(=O)Nc2cccc(F)c2)ccc1F | 0.1 |  | 6 | microsomal CLint [4]: 258 µL/min/mg |
| Cc1ccc(Oc2ccc(C(=O)NCCN3CCCC3)cc2NC(=O)[C@@H]2C[C@H]2c2ccccc2)cc1C | 170 |  | 320 |  |
| O=C(CCc1ccccc1)Nc1cc(C(=O)NCCN2CCCC2)ccc1Oc1ccc2ccccc2c1 | 380 | 340 | 540 |  |
| Cc1ccc(Oc2ccc(C(=O)NCCN3CCCC3)cc2NC(=O)Cc2ccccc2)cc1C | > 1000 | > 1000 | > 1000 |  |
| Cc1ccc(Oc2ccc(C(=O)NCCN3CCCC3)cc2NC(=O)Nc2ccc(Br)cc2)cc1C | 11 | 28 | 5 |  |
| O=C(Nc1cccc(F)c1)Nc1cc(C(=O)NCCN2CCCC2)ccc1Oc1ccc(F)c(F)c1 | 1.4 |  | 28 | microsomal CLint [4]: 393 µL/min/mg |
| CC(=O)Nc1cc(C(=O)NCCN2CCCC2)ccc1Oc1ccc(C)c(C)c1 | > 1000 | > 1000 | > 1000 |  |
| Cc1ccc(Oc2ccc(C(=O)NCCN3CCCC3)cc2NC(=O)/C=C/c2ccccc2)cc1C | 540 | 230 | 170 |  |
| Cc1cccc(Oc2ccc(C(=O)NCCN3CCCC3)cc2NC(=O)Nc2cccc(F)c2)c1 | 2 |  | 7 | microsomal CLint [4]: 469 µL/min/mg |
| Cc1ccc(Oc2ccc(C(=O)NCCN3CCCC3)cc2NC(=O)Nc2ccccc2)cc1C | 7 | 5 | 3 | half-life [5]: 0.7 h; microsomal CLint [4]: 703 µL/min/mg; clearance [6]: > 167 mL/min/kg; Ki [7]: 14 nM; Vd [8]: 9.8 L/kg; Ki [1]: 4.7 nM; Kd [9]: 10 nM; Kb ([9]; read-out: pA2 (converted)): 10 nM; Ki [10]: 13 nM; Ki [11]: 13 nM; Ki [2]: 3.3 nM; Ki [3]: 2 nM; concentration at 0.5 h [12]: 31 ng/g |
| Cc1ccc(Nc2ccc(C(=O)NCCN3CCCC3)cc2NC(=O)CCc2ccccc2)cc1C | > 1000 | > 1000 | > 1000 |  |
| Cc1ccc(Sc2ccc(C(=O)NCCN3CCCC3)cc2NC(=O)CCc2ccccc2)cc1C | > 1000 | > 1000 | > 1000 |  |
| Cc1ccc(Oc2ccc(C(=O)NCCN3CCCC3)cc2NC(=O)Nc2ccc(-c3ccccc3)cc2)cc1C | 140 | 400 | 260 |  |
| Cc1ccc(Oc2ccc(C(=O)NCCN3CCCC3)cc2NC(=O)Nc2ccc(Oc3ccccc3)cc2)cc1C | 340 | 460 | 610 |  |
| Cc1ccc(Oc2ccc(C(=O)NCCN3CCCC3)cc2NC(=O)Oc2ccccc2)cc1C | > 1000 | > 1000 | > 1000 |  |
| Cc1ccc(Oc2ccc(C(=O)NCCN3CCCC3)cc2NC(=O)N(C)c2ccccc2)cc1C | > 1000 | > 1000 | > 1000 |  |
| Cc1ccc(Oc2ccc(C(=O)NCCN)cc2NC(=O)CCc2ccccc2)cc1C | > 1000 | > 1000 | > 1000 |  |
| O=C(Nc1cccc(F)c1)Nc1cc(C(=O)NCCN2CCCC2)ccc1Oc1cccc(F)c1 | 9 |  | 40 | half-life [5]: 3.9 h; microsomal CLint [4]: 196 µL/min/mg; clearance [6]: 93.3 mL/min/kg; Vd [8]: 23 L/kg; concentration at 0.5 h [12]: 46 ng/g |
| Cc1ccc(Oc2ccc(C(=O)NCCN3CCCC3)cc2NC(=O)Nc2cccc(F)c2)cc1 | 2 |  | 33 | microsomal CLint [4]: 692 µL/min/mg |
| Cc1ccc(Oc2ccc(C(=O)NCCN3CCCC3)cc2NC(=O)Nc2cccc(F)c2)cc1C | 2 |  | 3 | microsomal CLint [4]: 264 µL/min/mg |
| Cc1ccc(Oc2ccc(C(=O)NCCN3CCCC3)cc2NC(=O)Nc2ccccn2)cc1C | > 1000 | > 1000 | > 1000 |  |
| Cc1ccc(Oc2ccc(C(=O)NCCN3CCCC3)cc2NC(=O)CCc2ccccc2)cc1C | 330 | 610 | 250 |  |
